Measured values from US7405204B2, “Nucleoside compounds for treating viral infections” (Genelabs Technologies, Inc., priority 2005, dated 2008).

Key:
[1] = test system: HCV replicon I389luc-ubi-neo/NS3-3′/ET in ET (Huh-lucubineo-ET) cell line; test: Replicon assay (luciferase reporter); assay type: cell-based; conditions: Hepatitis C virus, read-out: % inhibition of replication (luciferase)
Description: A cell line, ET (Huh-lucubineo-ET) was used for screening of compounds for inhibiting HCV RNA dependent RNA polymerase. The ET cell line was stably transfected with RNA transcripts harboring a I389luc-ubi-neo/NS3-3′/ET; replicon with firefly luciferase-ubiquitin-neomycin phosphotransferase fusion protein and EMCV-IRES driven NS3-5B polyprotein containing the cell culture adaptive mutations (E1202G; T1280I; K1846T) (Krieger at al, 2001 and unpublished). The ET cells were grown in DMEM, supplemented with 10% fetal calf serum, 2 mM Glutamine, Penicillin (100 IU/mL)/Streptomycin (100 μg/mL), 1× nonessential amino acids, and 250 μg/mL G418 (“Geneticin”). They were all available through Life Technologies (Bethesda, Md.). The cells were plated at 0.5-1.0×10^4 cells/well in the 96 well plates and incubated for 24 hrs before adding test compound. […] Luciferase activity was measured 48-72 hours later by adding a lysis buffer and the substrate (Catalog number Glo-lysis buffer E2661 and Bright-Glo luciferase system E2620 Promega, Madison, Wis.). […] Under the same condition, cytotoxicity of the compounds was determined using cell proliferation reagent, WST-1 (Roche, Germany). […] IC50 and TC50 values were calculated by fitting % inhibition at each concentration to the following equation: % inhibition=100%/[(IC50/[I])^b+1] where b is Hill's coefficient. […]

HCV-NS5b = target: T1, HCV-NS5b (Hepatitis C virus genotype 1b, UniProt Q9WMX2); test: HCV-NS5b enzyme assay; assay type: biochemical; conditions: recombinant NS5b, 37° C., 2 hours, read-out: % inhibition of polymerase activity ([3H]-UTP incorporation)
T1 construct: The cloned fragment was missing the C terminus 21 amino acid residues; (His)6 (C); made in house; host or cells: XL-1 cells (E. coli)
Description: The coding sequence of NS5b protein was cloned by PCR from pFKI389luc/NS3-3′/ET as described by Lohmann, V., et al. (1999) Science 285, 110-113 using the primers shown on page 266 of WO 2005/012288.
The cloned fragment was missing the C terminus 21 amino acid residues. The cloned fragment was inserted into an IPTG-inducible expression plasmid that provides an epitope tag (His)6 at the carboxy terminus of the protein.
The recombinant enzyme was expressed in XL-1 cells and after induction of expression, the protein was purified using affinity chromatography on a nickel-NTA column. Storage condition was 10 mM Tris-HCl pH 7.5, 50 mM NaCl, 0.1 mM EDTA, 1 mM DTT, 20% glycerol at −20° C.
The polymerase activity was assayed by measuring incorporation of radiolabeled UTP into a RNA product using a biotinylated, heteropolymeric template, which includes a portion of the HCV genome. Typically, the assay mixture (34 μL) contains 10 mM Tris-HCl (pH 7.5), 5 mM MgCl2, 0.2 mM EDTA, 10 mM KCl, 1 unit/μL RNAsin, 1 mM DTT, 10 μM each of NTP, including [^3H]-UTP, and 10 ng/μL biotinylated heteropolymeric template. […] Incorporation of radioactivity was determined by scintillation counting (cpm). The % Inhibition at a particular concentration was determined using the following equation, % Inhibition=100−[100*(cpm with inhibitor−bg)/(cpm with no inhibitor−bg)] where bg was the background with no enzyme.

C#Cc1cn(C2OC(COP(=O)(NC(C)C(=O)OC)Oc3ccccc3)[C@@H](O)[C@@]2(C)F)c2ncnc(N)c12 (stereo partly drawn) [[4-Amino-5-ethynyl-7-(2-deoxy-2-fluoro-2-C-methyl-β-D-ribofuanosyl)-7H-pyrrolo[2,3-d]pyrimidine]5′-[Rp/Sp-Methoxyalaninylphenylphosphate]]
inhibition at 12.5 µM [1]: 11%

C#Cc1cn(C2OC(CO)[C@@H](O)[C@@]2(C)F)c2ncnc(N)c12 (stereo in doubt) [4-Amino-5-ethynyl-7-(2-deoxy-2-fluoro-2-C-methyl-β-D-ribofuanosyl)-7H-pyrrolo[2,3-d]pyrimidine]
inhibition at 50 µM [1]: 60%

C#Cc1cn(C2OC(COP(=O)(O)OP(=O)(O)OP(=O)(O)O)[C@@H](O)[C@@]2(C)F)c2ncnc(N)c12 (stereo partly drawn) [[4-Amino-5-ethynyl-7-(2-deoxy-2-fluoro-2-C-methyl-β-D-ribofuanosyl)-7H-pyrrolo[2,3-d]pyrimidine]5′-triphosphate]
inhibition at 6 µM (HCV-NS5b): 95%
